Measured values as given in publication PMC7311426, “An amphipathic peptide with antibiotic activity against multidrug-resistant Gram-negative bacteria” (Nature Communications, 2020).
Like-named read-outs stand apart in the source and are kept apart here. Residues, ends and D or L forms follow the SMILES beside them.

Tests used:
[1] = inhalation, mice; for Tmax: relative to end of inhalation
[2] = In vivo toxicity and safety pharmacology, i.v./i.p./s.c.
C. albicans = assay: microbe, parasite or virus in culture

In the case of `CC(C)[C@@H]1NC(=O)[C@H](Cc2ccc(O)cc2)NC(=O)[C@H](Cc2c[nH]c3ccccc23)NC(=O)[C@@H](NC(=O)[C@H](Cc2ccccc2)NC(=O)CN)CSSC[C@@H](C(=O)N[C@@H](CC(N)=O)C(=O)O)NC(=O)[C@H](CCCNC(=N)N)NC(=O)[C@H](CCCNC(=N)N)NC(=O)[C@H](Cc2ccc(O)cc2)NC(=O)[C@@H]2CSSC[C@H](NC1=O)C(=O)N[C@@H](C)C(=O)N[C@@H](CCCNC(=N)N)C(=O)N[C@@H](CCCNC(=N)N)C(=O)N[C@@H](CC(N)=O)C(=O)NCC(=O)N[C@@H](C)C(=O)N[C@@H](CCCNC(=N)N)C(=O)N[C@@H](C(C)C)C(=O)N2` [AA139] (HELM PEPTIDE1{G.F.C.W.Y.V.C.A.R.R.N.G.A.R.V.C.Y.R.R.C.N}$PEPTIDE1,PEPTIDE1,3:R3-20:R3|PEPTIDE1,PEPTIDE1,7:R3-16:R3$$$V2.0), the “AUC(0-t)” value ([1]; ELF, Day 1, 5 mg kg-1/day) was 27,250 ng*h mL-1, the Cmax ([1]; ELF, Day 1, 5 mg kg-1/day) was 14,750 ng mL-1 and the Tmax ([1]; ELF, Day 1, 5 mg kg-1/day) was 30 min. The Cmax ([1]; ELF, Day 1, 20 mg kg-1/day) was 8,245 ng mL-1, the Tmax ([1]; ELF, Day 1, 20 mg kg-1/day) was 78 min and the “AUC(0-t)” value ([1]; ELF, Day 1, 40 mg kg-1/day) was 63,300 ng*h mL-1. For the same compound, the Cmax ([1]; ELF, Day 1, 40 mg kg-1/day) was 36,300 ng mL-1, the Tmax ([1]; ELF, Day 1, 40 mg kg-1/day) was 0 min and the “AUC(0-t)” value ([1]; ELF, Day 7, 5 mg kg-1/day) was 58,650 ng*h mL-1. The Cmax ([1]; ELF, Day 7, 5 mg kg-1/day) was 21,100 ng mL-1, the Tmax ([1]; ELF, Day 7, 5 mg kg-1/day) was 18 min and the Cmax ([1]; ELF, Day 7, 20 mg kg-1/day) was 42,350 ng mL-1. The Tmax ([1]; ELF, Day 7, 20 mg kg-1/day) was 0 min, the “AUC(0-t)” value ([1]; Lung (ng/g), Day 1, 5 mg kg-1/day) was 8,585 ng*h mL-1 and the “AUC(0-t)” value ([1]; Lung (ng/g), Day 1, 20 mg kg-1/day) was 14,411 ng*h mL-1. The “AUC(0-t)” value ([1]; Lung (ng/g), Day 1, 40 mg kg-1/day) was 7,002 ng*h mL-1, the “AUC(0-t)” value ([1]; Lung (ng/g), Day 7, 5 mg kg-1/day) was 11,802 ng*h mL-1 and the “AUC(0-t)” value ([1]; Lung (ng/g), Day 7, 20 mg kg-1/day) was 66,791 ng*h mL-1. The Cmax ([1]; Lung, Day 1, 5 mg kg-1/day) was 3,935 ng/g, the Tmax ([1]; Lung, Day 1, 5 mg kg-1/day) was 0 min and the Cmax ([1]; Lung, Day 1, 20 mg kg-1/day) was 7,691 ng/g. The Tmax ([1]; Lung, Day 1, 20 mg kg-1/day) was 0 min, the Cmax ([1]; Lung, Day 1, 40 mg kg-1/day) was 16,162 ng/g and the Tmax ([1]; Lung, Day 1, 40 mg kg-1/day) was 0 min. The Cmax ([1]; Lung, Day 7, 5 mg kg-1/day) was 4,228 ng/g, the Tmax ([1]; Lung, Day 7, 5 mg kg-1/day) was 0 min and the Cmax ([1]; Lung, Day 7, 20 mg kg-1/day) was 15,133 ng/g. For the same compound, the Tmax ([1]; Lung, Day 7, 20 mg kg-1/day) was 30 min, the Tmax ([1]; Plasma, Day 7, 5 mg kg-1/day) was 18 min and the Tmax ([1]; Plasma, Day 7, 20 mg kg-1/day) was 0 min. For the same compound, the NOAEL in mice ([2]; 7-day or 14-day repeated 2 h i.v. infusion once or twice daily) was 20 mg kg^−1 per day, the MTD ([2]; mouse, in vivo, ip) was 20 mg/kg and the MTD ([2]; mouse, in vivo, iv) was 15 mg/kg. For the same compound, the MTD at 168 h ([2]; mouse, in vivo, iv) was 25 mg/kg, the AUC(0-t) ([2]; mouse, in vivo, iv, 20 mg/kg) was 28000 ng·h/mL and the Cmax ([2]; mouse, in vivo, iv, 20 mg/kg, Cmax, Mouse, 14-day iv toxicity, GLP, TK dose 20 mg/kg, Day 1) was 11600 ng/mL. For the same compound, the Cmax ([2]; mouse, in vivo, iv, 20 mg/kg, Cmax, Mouse, 14-day iv toxicity, GLP, TK dose 20 mg/kg, Day 14) was 9600 ng/mL, the AUC(0-inf) ([2]; mouse, in vivo, iv, 29 mg/kg) was 43800 ng·h/mL and the Cmax ([2]; mouse, in vivo, iv, 29 mg/kg) was 7500 ng/mL. For the same compound, the NOAEL at 168 h ([2]; mouse, in vivo, iv, NOAEL, 7-day iv MTD, IV 2-h infusion, doses 20, 25, 30) was 20 mg/kg, the NOAEL at 336 h ([2]; mouse, in vivo, iv, NOAEL, 14-day iv toxicity, GLP, IV 2-h infusion, 0, 10, 15, 20 BID) was 40 mg/kg/day and the NOAEL ([2]; mouse, in vivo, iv, NOAEL, CNS & respiratory safety pharmacology iv, IV 2-h infusion, doses 0, 15, 20, 25) was 20 mg/kg. The NOAEL ([2]; mouse, in vivo, iv, NOAEL, single-dose iv MTD, doses 0, 5, 7.5, 10, 15, 20) was 5 mg/kg, the MTD ([2]; mouse, in vivo, sc, 100 mg/kg) was 100 mg/kg and the “BMD MIC” value (C. albicans) was no less than 32 µg/mL. The “BMD MIC” value (C. albicans; 24 h) was 64 µg/mL.
